Source: PubChem BioAssay AID743417 (Broad Institute, 2014)
Results filed as inconclusive are left out. Active and inactive are the calls of the source.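 How the source made its calls: active means compounds lowering the luciferase signal with a fitted half-maximal dose at most twice their top valid dose (cut at about 30 µM in these data); inconclusive means flat fits with moderate signal loss, or poor fits; inactive means the rest.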

Test system: Clone20 osteoblast Shn3 3'UTR firefly luciferase, 24 h
Assay: Schnurri-3 3'UTR-luciferase signal suppressors – cell-based, Clone20 osteoblasts, luminescence, dry powder, set 2, dose response (AID 743417)

Structure (SMILES)	AC50
COc1ccc(Oc2cc(NC(=O)c3nn(C)cc3[N+](=O)[O-])cc([N+](=O)[O-])c2)cc1	813 nM
COc1c(CC=C(C)C)cc(C2CC(=O)c3c(O)cc(O)cc3O2)cc1CC=C(C)C (configuration not stated)	5420 nM
CCCCC(=O)NC(c1ccccc1)c1ccc2cccnc2c1O (configuration not stated)	2350 nM
OC[C@@H]1CN(Cc2ccncc2)C[C@H](n2cnc3c(N4CCN(c5ccccc5)CC4)ncnc32)O1	2380 nM
CC(=O)Nc1ccc(NC(=O)c2nc(S(=O)(=O)Cc3cccc(C)c3)ncc2Cl)cc1	528 nM
Cc1c(Cl)sn(-c2ccc(Cl)cc2)c1=O	728 nM
COc1cc(CC(=O)Nc2nc(-c3ccc(F)c(F)c3)cs2)cc(OC)c1OC	3920 nM
CCCCCCCNC(=O)C1(CC2CC(c3cccc(Br)c3)=NO2)CCNCC1 (configuration not stated)	11700 nM
COc1cnc(-c2ccccn2)nc1NC(C)C	2810 nM
CC(C)C(=O)NC(c1ccc(Cl)cc1Cl)c1ccc2cccnc2c1O (configuration not stated)	691 nM
CCOC(=O)CS(=O)(=O)c1nc(-c2ccc(F)cc2)cc(C(F)(F)F)n1	1780 nM
C#CC(=O)N(c1cccc(OC)c1)C(C(=O)NC1CCCC1)c1cccs1 (configuration not stated)	3800 nM
CCn1cc(CN(C)S(=O)(=O)c2ccc3ccccc3c2)c(C)n1	1560 nM
Cc1ccc([N+](=O)[O-])cc1NC(=O)Nc1cccc(F)c1	2210 nM
COc1cccc(CN(C)C(=O)c2cccc(S(=O)(=O)N3CCN(Cc4ccccc4)CC3)c2)c1OC	4940 nM
Oc1ccc(-c2n[nH]c(C(F)(F)F)c2-c2ccccc2)c(O)c1	283 nM
CCOC(=O)N1CCN(S(=O)(=O)c2ccc(C(=O)Nc3nc4ccc(F)cc4s3)cc2)CC1	4790 nM
CN(C)c1ncnc2c1C(c1ccccc1)C(C)(C)O2 (configuration not stated)	> 70000 nM (inactive)
CCCn1c(NC(=O)c2ccc(Cl)c(S(=O)(=O)N3CCCC3)c2)nc2ccccc21	8390 nM
CC1=NNC(=O)/C1=C\c1cn(-c2ccccc2)nc1-c1ccccc1	8420 nM
CCS(=O)(=O)c1ncc(Cl)c(C(=O)Nc2ccccc2OC)n1	3710 nM
C#CCN(C[C@@H]1[C@@H](OC(=O)NC2CCCC2)[C@@H](OC(=O)NC2CCCC2)Cn2c(=O)ccc(=O)n21)S(=O)(=O)c1ccc(C)cc1	12900 nM
CSc1nc(N)nc2c1ncn2CC(=O)N1CCN(Cc2c(C)cc(C)cc2C)CC1	526 nM
CCc1cc2c(N3CCN(c4ccccc4)CC3)ncnc2s1	6180 nM
COc1cc(OC)c(OC)cc1CCC(C)NCCC(c1ccccc1)c1ccccc1 (configuration not stated)	3990 nM
Cn1c(=O)c2c(nc(NCc3ccco3)n2CCc2ccccc2)n(C)c1=O	2340 nM

Structure (SMILES)	AC50
CCCCNc1c(-c2ccc(OC)c(SC3CCCCC3)c2)nc2ccc(C)cn12	3680 nM
Cc1ccc(NC(=O)C2CCN(S(=O)(=O)c3ccc4c(c3)NC(=O)C(C)S4)CC2)cc1C (configuration not stated)	2610 nM
CCC(CC)CN1C(N(C)C)=NC[C@@H]1CC(C)C	717 nM
COc1ccc(NS(=O)(=O)c2ccc(N3CCCCC3)c(N)c2)cc1	824 nM
Cc1nc2ccccn2c1C(=O)NC1CCCc2ccccc21 (configuration not stated)	2470 nM
CCCCNc1c(-c2ccc(OC)c(Sc3ccc(OC)cc3)c2)nc2ccccn12	821 nM
O=C(Nc1ccc(N2CCOCC2)cc1)c1ccc(Cl)c(S(=O)(=O)N2CCCCC2)c1	810 nM
O=[N+]([O-])c1cc(CN2CCN(c3ccccc3)CC2)c(O)c2ncccc12	1990 nM
COCc1c(C(=O)Nc2cccc(S(=O)(=O)N3CCCCC3)c2)oc2ccccc12	9630 nM
COc1ccc(Nc2cc(C)nc(NCc3ccccc3)n2)cc1	3900 nM
CC(C)c1ccc(NC(=O)Nc2nc(C(N)COCc3ccccc3)cs2)cc1 (configuration not stated)	5990 nM
COc1ccc(CNCCc2c(C)[nH]c3ccc(OC(F)(F)F)cc23)c(OC)c1	963 nM
NC(Cc1ccc(Cl)cc1)c1csc(NC(=O)NCC2CCCCC2)n1 (configuration not stated)	6580 nM
CN(c1ccccc1)S(=O)(=O)c1ccc(NC(=O)c2nc(S(C)(=O)=O)ncc2Cl)cc1	502 nM
CCCCn1c(CN(C)Cc2ccccc2)nc2c1c(=O)n(C)c(=O)n2C	2380 nM
CC(Sc1nc2ccccc2c(=O)n1C)C(=O)NC1CCCCC1C (configuration not stated)	3460 nM
CNC[C@H](CC1CCCCC1)NC[C@H](Cc1ccccc1)NCCC12CC3CC(CC(C3)C1)C2	5510 nM
COCCC1CCCCN1C(=O)c1cc(COc2ccc(-n3cncn3)cc2)on1 (configuration not stated)	570 nM
Cc1ccc(S(=O)(=O)N2C[C@@H]3CCCC[C@@H]3[C@@H](C)[C@H]2c2cn(Cc3ccccc3)c3ncccc23)cc1	1920 nM
Cc1ccc(CNc2nc(NCC3CC3)nc3ccsc23)c(C)c1	3950 nM
COc1cc(SC)ccc1C(=O)Nc1nc(C)cs1	7090 nM
C=C1C(=O)[C@@]23[C@H](O)C[C@@H]4C(C)(C)CC[C@H](O)[C@@]4(C)[C@@H]2CC[C@@H]1[C@H]3O	1290 nM
CCN(CC)S(=O)(=O)c1cccc(NC(=O)CNc2cccc(S(=O)(=O)N3CCOCC3)c2)c1	865 nM
COc1ccc(CC(=O)Nc2cccc(S(=O)(=O)N3CCCCCC3)c2)cc1OC	2270 nM
CSC1SCC2C(=O)N(C)C(C(C)C)C(=O)OCC(NC(=O)c3cnc4ccccc4n3)C(=O)NC(C)C(=O)N(C)C1C(=O)N(C)C(C(C)C)C(=O)OCC(NC(=O)c1cnc3ccccc3n1)C(=O)NC(C)C(=O)N2C (configuration not stated)	< 260 nM
Cc1cc(C)c2nc(NNC(=O)c3ccc(S(=O)(=O)N4CCc5ccccc5C4)cc3)sc2c1	1980 nM

Structure (SMILES)	AC50
Oc1ccc(CCNc2ncnc3ccc(Cl)cc23)cc1	551 nM
CC(C)(C)NCC(=Cc1ccccc1)C(=O)c1ccccc1	4510 nM
COC(=O)C[C@]1(C(=O)OC)CN(C#N)N(c2ccc(Cl)cc2)C12c1ccccc1-c1ccccc12	1880 nM
O=C(CSc1c2c(nc3ccc(Cl)cc13)CCCC2)N1CCN(C(=O)c2ccco2)CC1	3750 nM
O=C1C(F)=CC(COC(c2ccccc2)(c2ccccc2)c2ccccc2)OC1n1cc(F)c(=O)[nH]c1=O (configuration not stated)	428 nM
COCCN(C(=O)COC(=O)C1CCC(C(C)(C)C)CC1)c1c(N)n(Cc2ccccc2)c(=O)[nH]c1=O (configuration not stated)	5150 nM
OC1(c2ccc(OC(F)F)cc2)CSC(=Nc2cccnc2)N1C1CC1 (configuration not stated)	5400 nM
Cc1ccc(C(=O)/C=C/c2ccc(-c3ccc(C)cc3)o2)cc1	2790 nM
CC(=O)N1CCCc2cc(S(=O)(=O)N3CCCC(C(=O)N4CCN(c5cccc(Cl)c5)CC4)C3)ccc21 (configuration not stated)	1900 nM
Cc1ccc(S(=O)(=O)NCc2ccncc2)cc1C	585 nM
COc1ccccc1C(NC(C)=O)c1cc(Cl)c2cccnc2c1O (configuration not stated)	2560 nM
O=C(c1ccc(S(=O)(=O)c2ccccc2Cl)c([N+](=O)[O-])c1)N1CCN(Cc2ccccc2)CC1	5770 nM
NS(=O)(=O)c1ccc(CCNc2nn3c(-c4cccc(OC(F)(F)F)c4)cnc3s2)cc1	3930 nM
CC1CN(C(=O)CCc2cc(C(C)(C)C)c(O)c(C(C)(C)C)c2)CC(C)O1 (configuration not stated)	2560 nM
CN(c1cccc(Cl)c1)S(=O)(=O)c1cccc(C(=O)NCc2ccncc2)c1	< 260 nM
Cn1nc(C(C)(C)C)cc1C(=O)NCc1ccc2c(c1)OCO2	1170 nM
COC(=O)C1=C(c2ccc(OCc3ccccc3)cc2)C[C@@H]2CC[C@H]1N2C(=O)NCCCCc1ccccc1	2800 nM
CC1Cc2ccccc2N1Cc1cccc(S(=O)(=O)N(C)C)c1 (configuration not stated)	33000 nM
CC(C)C1C(=O)N(Cc2cn(CCC3OCCO3)nn2)CCS(=O)(=O)N1Cc1ccc(-c2ccc(Cl)c(Cl)c2)cc1 (configuration not stated)	1280 nM
Cc1ccc(-c2nn(C(C)(C)C)c3ncnc(N)c23)cc1	5890 nM
Cc1ccc(NC(=O)C2CCN(S(=O)(=O)c3ccc4c(c3)NC(=O)C(C)S4)CC2)cc1Cl (configuration not stated)	2830 nM
Cc1cc(C(=O)COC(=O)c2ccccc2Br)c(C)n1CC1CCCO1 (configuration not stated)	> 70000 nM (inactive)
C[C@@H]1COC(=O)[C@@H](NC(=O)OCC2c3ccccc3-c3ccccc32)C/C=C\C[C@@H](CC(=O)N(CCO)Cc2ccccc2)C(=O)N1	1890 nM
COc1cc(NS(=O)(=O)c2ccc(C)cc2)c2ncccc2c1	3350 nM
Cc1csc(=O)n1CC(=O)OCC(=O)c1c(N)n(C)c(=O)n(C)c1=O	27100 nM
Cc1ccc(NC(=O)c2nc(S(=O)(=O)Cc3ccccc3)ncc2Cl)cc1	3420 nM

Structure (SMILES)	AC50
Cc1ccc(CS(=O)(=O)c2ncc(Cl)c(C(=O)Nc3nnc(C(C)C)s3)n2)cc1	1520 nM
CC[C@@H](C)[C@H](NC(=O)OC(C)(C)C)c1nnc(S(=O)(=O)Cc2cc(C)ccc2C)o1	5770 nM
COc1cc(CN2CCc3ccccc3C2)ccc1O	912 nM
Cc1cccc(CS(=O)(=O)c2ncc(Cl)c(C(=O)Nc3nnc(C(C)C)s3)n2)c1	1620 nM
O=C(Nc1ccc(Cl)cc1)Nc1ccc(N2CCCC2)c(S(=O)(=O)Nc2ccccc2Cl)c1	5200 nM
COC(=O)/C=C/S(=O)(=O)c1ccc(NC(C)=O)cc1	7300 nM
O=C(NCc1cccnc1)c1ccc(-c2ccc(F)c(F)c2)c2ccoc12	3480 nM
CC(C)(C)NC(=O)CSc1nc2ccc(NC(=O)CSc3nnnn3Cc3ccccc3)cc2s1	3260 nM
O=C(Nc1ccc([N+](=O)[O-])cc1)C(=O)Nc1cccc(C(=O)O)c1	4210 nM
CS(=O)(=O)c1ccc(C(=O)OCC(=O)N2CCOCC2)cc1[N+](=O)[O-]	17500 nM
COc1cc(N2C(=O)C=CC2=O)ccc1N1C(=O)C=CC1=O	2320 nM
CSc1nnc(NC(=O)c2nc(S(=O)(=O)Cc3ccccc3F)ncc2Cl)s1	1550 nM
Oc1cc(Nc2ccccc2)cc2cccnc12	1790 nM
CN(CC(=O)Nc1ccccc1Cl)C(=O)c1cccc(S(=O)(=O)N2CCN(c3ccccc3)CC2)c1	3840 nM
Cn1cc([N+](=O)[O-])c(C(=O)Nc2sc3c(c2C#N)CCC3)n1	880 nM
COc1ccccc1OCC(=O)c1[nH]c(C)c(C(C)=O)c1C	3350 nM
Cc1cccc(NC(=O)CSc2nc3ccccc3c(=O)n2C)c1C	2980 nM
CC1C(OC(=O)CCC(=O)NC(C)(C)CO)O[C@H]2OC3(C)CC[C@H]4[C@H](C)CCC1C24OO3 (some centres not stated)	495 nM
Cc1ccc2nc(NC(=O)C3CCN(S(=O)(=O)c4ccc5c(c4)oc(=O)n5C)CC3)sc2c1	3350 nM
NS(=O)(=O)c1ccc(CNC(=S)NC(=O)c2ccco2)cc1	22900 nM
CC(=O)c1cn(CCOc2cc(C)ccc2C)c2ccccc12	1180 nM
CC(=O)Nc1nc(C)c(-c2csc(Nc3cccc(C(C)=O)c3)n2)s1	1670 nM
CC(CCc1ccccc1)NC(=O)COC(=O)c1ccc(S(C)(=O)=O)c([N+](=O)[O-])c1 (configuration not stated)	3340 nM
O=S(=O)(c1ccccc1)N1CCN(c2cc(-c3ccccc3)nc3ncnn23)CC1	1120 nM
